What was measured:
[1] = Study A: randomized, double-blind, placebo-controlled study, acute treatment of a single migraine attack; assay type: in vivo, human; details: for Absence of Most-Bothersome Migraine Associated Symptom at 2 hours after the initial dose: Odds Ratio (95% CI) / Pain Freedom at 2 hours after the initial dose: Odds Ratio (95% CI): mITT
Experimental: (§1) Study A and Study B were multicenter, randomized, double-blind, placebo-controlled, parallel-group, studies designed to evaluate the efficacy, safety, and tolerability of three doses of ubrogepant (25 mg, 50 mg and 100 mg) compared to placebo for the acute treatment of a single migraine attack. In Study A, patients were randomized (1:1:1) to 1 of 3 treatment groups: placebo, ubrogepant 50 mg, or ubrogepant 100 mg. In Study B, patients were randomized (1:1:1) to 1 of 3 treatment groups: placebo, ubrogepant 25 mg, or ubrogepant 50 mg. Patients were stratified by their previous response to triptans (triptan responder, triptan insufficient responder, triptan naïve) and their current use of prophylactic concomitant medication for migraine (yes/no). To be randomized, eligible patients had to be 18 to 75 years of age (inclusive), have a history of migraine with or without aura for at least 1 year consistent with a diagnosis according to the International Classification of Headache Disorders criteria, 3rd edition, beta version, and had to have experienced between 2 to 8 migraine attacks with moderate to severe headache pain in each of the 3 months before Screening (Visit 1). Patients who had clinically significant hematologic, endocrine, cardiovascular, cerebrovascular, pulmonary, renal, hepatic, gastrointestinal, or neurologic disease were excluded from the study. Study patients randomized to a treatment group had up to 60 days to treat a single qualifying migraine attack of moderate or severe pain intensity at home. In Study A, a total of 1672 patients were randomized to double-blind treatment (ITT population), and 1436 patients took at least 1 dose of double-blind IP (safety population). A total of 1327 treated patients recorded a baseline migraine headache severity measurement and at least 1 postdose migraine headache severity or migraine-associated symptom measurement within 2 hours after dosing (mITT population). In Study B, a total of 1,686 patients were randomized to double-blind treatment (ITT population), and 1,465 patients took at least 1 dose of double-blind IP (safety population). A total of 1355 treated patients recorded a baseline migraine headache severity measurement and at least 1 postdose migraine headache severity or migraine-associated symptom measurement within 2 hours after dosing (mITT population). The coprimary efficacy endpoints for the United States were pain freedom (PF) at 2 hours after the initial dose, defined as a reduction in headache severity from moderate/severe at baseline to no pain, at 2 hours after the initial dose and absence of the most bothersome migraine-associated symptom at 2 hours after the initial dose. The most bothersome migraine-associated symptom was identified at baseline for each patient.

[2] = Study B: randomized, double-blind, placebo-controlled study, acute treatment of a single migraine attack; assay type: in vivo, human; details: for Absence of Most-Bothersome Migraine Associated Symptom at 2 hours after the initial dose: Odds Ratio (95% CI) / Pain Freedom at 2 hours after the initial dose: Odds Ratio (95% CI): mITT
Experimental: as §1

[3] = 50 mg vs placebo, Triptan Insufficient Responder
[4] = 50 mg vs placebo, Triptan Naïve
[5] = 50 mg vs placebo, Triptan Responder
[6] = 100 mg vs placebo, Triptan Insufficient Responder
[7] = 100 mg vs placebo, Triptan Naïve
[8] = 100 mg vs placebo, Triptan Responder
[9] = 100 mg, Triptan Insufficient Responder, N1=126, mITT
[10] = 100 mg, Triptan Naïve, N1=149, mITT
[11] = 100 mg, Triptan Responder, N1=173, mITT
[12] = 25 mg vs placebo, Triptan Insufficient Responder
[13] = 25 mg vs placebo, Triptan Responder
[14] = 25 mg, Triptan Insufficient Responder, N1=100, mITT
[15] = 50 mg, Triptan Insufficient Responder, N1=110, mITT
[16] = 50 mg, Triptan Responder, N1=160, mITT

C[C@@H]1[C@H](c2ccccc2)C[C@H](NC(=O)c2cnc3c(c2)C[C@@]2(C3)C(=O)Nc3ncccc32)C(=O)N1CC(F)(F)F [Ubrogepant, ubrogepant]
Absence of Most-Bothersome Migraine Associated Symptom at 2 hours after the initial dose: Odds Ratio (95% CI) [1, 3]: 1.80 | Pain Freedom at 2 hours after the initial dose: Odds Ratio (95% CI) [1, 3]: 2.41 | Absence of Most-Bothersome Migraine Associated Symptom at 2 hours after the initial dose: Odds Ratio (95% CI) [1, 4]: 1.48 | Pain Freedom at 2 hours after the initial dose: Odds Ratio (95% CI) [1, 4]: 1.60 | Absence of Most-Bothersome Migraine Associated Symptom at 2 hours after the initial dose: Odds Ratio (95% CI) [1, 5]: 1.85 | Pain Freedom at 2 hours after the initial dose: Odds Ratio (95% CI) [1, 5]: 1.86 | Absence of Most-Bothersome Migraine Associated Symptom at 2 hours after the initial dose: Responder rate (in parentheses) ([1]; 50 mg, Triptan Insufficient Responder, N1=116, mITT): (33.6) | Pain Freedom at 2 hours after the initial dose: Responder rate (in parentheses) ([1]; 50 mg, Triptan Insufficient Responder, N1=118, mITT): (13.6) | Absence of Most-Bothersome Migraine Associated Symptom at 2 hours after the initial dose: Responder rate (in parentheses) ([1]; 50 mg, Triptan Naïve, N1=132, mITT): (42.4) | Pain Freedom at 2 hours after the initial dose: Responder rate (in parentheses) ([1]; 50 mg, Triptan Naïve, N1=133, mITT): (24.8) | Pain Freedom at 2 hours after the initial dose: Responder rate (in parentheses) ([1]; 50 mg, Triptan Responder, N1=171, mITT): (18.7) | Absence of Most-Bothersome Migraine Associated Symptom at 2 hours after the initial dose: Responder rate (in parentheses) ([1]; 50 mg, Triptan Responder, N1=172, mITT): (39.0) | Absence of Most-Bothersome Migraine Associated Symptom at 2 hours after the initial dose: Odds Ratio (95% CI) [1, 6]: 1.50 | Pain Freedom at 2 hours after the initial dose: Odds Ratio (95% CI) [1, 6]: 2.49 | Absence of Most-Bothersome Migraine Associated Symptom at 2 hours after the initial dose: Odds Ratio (95% CI) [1, 7]: 1.22 | Pain Freedom at 2 hours after the initial dose: Odds Ratio (95% CI) [1, 7]: 1.26 | Absence of Most-Bothersome Migraine Associated Symptom at 2 hours after the initial dose: Odds Ratio (95% CI) [1, 8]: 2.18 | Pain Freedom at 2 hours after the initial dose: Odds Ratio (95% CI) [1, 8]: 2.89 | Absence of Most-Bothersome Migraine Associated Symptom at 2 hours after the initial dose: Responder rate (in parentheses) [1, 9]: (30.2) | Pain Freedom at 2 hours after the initial dose: Responder rate (in parentheses) [1, 9]: (14.3) | Absence of Most-Bothersome Migraine Associated Symptom at 2 hours after the initial dose: Responder rate (in parentheses) [1, 10]: (37.6) | Pain Freedom at 2 hours after the initial dose: Responder rate (in parentheses) [1, 10]: (20.8) | Absence of Most-Bothersome Migraine Associated Symptom at 2 hours after the initial dose: Responder rate (in parentheses) [1, 11]: (43.4) | Pain Freedom at 2 hours after the initial dose: Responder rate (in parentheses) [1, 11]: (26.6) | Absence of Most-Bothersome Migraine Associated Symptom at 2 hours after the initial dose: Odds Ratio (95% CI) [2, 12]: 1.65 | Pain Freedom at 2 hours after the initial dose: Odds Ratio (95% CI) [2, 12]: 1.81 | Absence of Most-Bothersome Migraine Associated Symptom at 2 hours after the initial dose: Odds Ratio (95% CI) ([2]; 25 mg vs placebo, Triptan Naive): 1.32 | Pain Freedom at 2 hours after the initial dose: Odds Ratio (95% CI) ([2]; 25 mg vs placebo, Triptan Naïve): 1.50 | Absence of Most-Bothersome Migraine Associated Symptom at 2 hours after the initial dose: Odds Ratio (95% CI) [2, 13]: 1.26 | Pain Freedom at 2 hours after the initial dose: Odds Ratio (95% CI) [2, 13]: 1.52 | Absence of Most-Bothersome Migraine Associated Symptom at 2 hours after the initial dose: Responder rate (in parentheses) [2, 14]: (37.0) | Pain Freedom at 2 hours after the initial dose: Responder rate (in parentheses) [2, 14]: (18.0) | Absence of Most-Bothersome Migraine Associated Symptom at 2 hours after the initial dose: Responder rate (in parentheses) ([2]; 25 mg, Triptan Naive, N1=184, mITT): (34.2) | Pain Freedom at 2 hours after the initial dose: Responder rate (in parentheses) ([2]; 25 mg, Triptan Naïve, N1=184, mITT): (25.5) | Absence of Most-Bothersome Migraine Associated Symptom at 2 hours after the initial dose: Responder rate (in parentheses) ([2]; 25 mg, Triptan Responder, N1=150, mITT): (32.0) | Pain Freedom at 2 hours after the initial dose: Responder rate (in parentheses) ([2]; 25 mg, Triptan Responder, N1=151, mITT): (16.6) | Absence of Most-Bothersome Migraine Associated Symptom at 2 hours after the initial dose: Odds Ratio (95% CI) [2, 3]: 1.72 | Pain Freedom at 2 hours after the initial dose: Odds Ratio (95% CI) [2, 3]: 1.97 | Absence of Most-Bothersome Migraine Associated Symptom at 2 hours after the initial dose: Odds Ratio (95% CI) ([2]; 50 mg vs placebo, Triptan Naive): 1.54 | Pain Freedom at 2 hours after the initial dose: Odds Ratio (95% CI) [2, 4]: 1.22 | Absence of Most-Bothersome Migraine Associated Symptom at 2 hours after the initial dose: Odds Ratio (95% CI) [2, 5]: 1.76 | Pain Freedom at 2 hours after the initial dose: Odds Ratio (95% CI) [2, 5]: 2.19 | Absence of Most-Bothersome Migraine Associated Symptom at 2 hours after the initial dose: Responder rate (in parentheses) [2, 15]: (38.2) | Pain Freedom at 2 hours after the initial dose: Responder rate (in parentheses) [2, 15]: (19.1) | Absence of Most-Bothersome Migraine Associated Symptom at 2 hours after the initial dose: Responder rate (in parentheses) ([2]; 50 mg, Triptan Naive, N1=193, mITT): (39.4) | Pain Freedom at 2 hours after the initial dose: Responder rate (in parentheses) ([2]; 50 mg, Triptan Naïve, N1=194, mITT): (23.2) | Absence of Most-Bothersome Migraine Associated Symptom at 2 hours after the initial dose: Responder rate (in parentheses) [2, 16]: (38.8) | Pain Freedom at 2 hours after the initial dose: Responder rate (in parentheses) [2, 16]: (21.9)
